Laboratory results published in ChEMBL document CHEMBL5257035, “Nucleoside Derived Antibiotics to Fight Microbial Drug Resistance: New Utilities for an Established Class of Drugs?” (J Med Chem, 2016).
In brackets after ≈: the same amount, converted by molar mass.

What was measured:
[1] = Inhibition of Bacterial MraY; set-up: species or system Bacteria
Candida albicans = assay: Inhibition of Candida albicans chitin synthase at 1 uM relative to control
Bacillus subtilis = assay: Antibacterial activity against Bacillus subtilis ATCC 6633 assessed as bacterial growth inhibition by agar diffusion method; assay type: functional
[2] = Toxicity in rat; conditions: in vivo
[3] = molecular target: T1, Phospho-N-acetylmuramoyl-pentapeptide-transferase (Escherichia coli, UniProt E2QF15); assay: Inhibition of MraY in Escherichia coli
T1 sequence (E2QF15 whole entry): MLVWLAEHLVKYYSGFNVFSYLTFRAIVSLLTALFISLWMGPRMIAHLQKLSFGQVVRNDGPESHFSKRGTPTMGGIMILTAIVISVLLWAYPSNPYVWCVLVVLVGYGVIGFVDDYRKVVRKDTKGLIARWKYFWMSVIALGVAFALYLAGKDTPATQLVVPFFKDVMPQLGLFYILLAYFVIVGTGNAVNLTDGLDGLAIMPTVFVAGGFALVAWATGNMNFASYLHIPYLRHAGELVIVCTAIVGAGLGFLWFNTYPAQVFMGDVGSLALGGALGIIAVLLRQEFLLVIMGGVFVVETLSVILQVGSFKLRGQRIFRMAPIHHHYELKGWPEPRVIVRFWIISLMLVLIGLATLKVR

[4] = molecular target: T2, Phospho-N-acetylmuramoyl-pentapeptide-transferase (Escherichia coli K-12, UniProt P0A6W3); assay: Inhibition of MraY in Escherichia coli K12
T2 sequence (P0A6W3 whole entry): T1 sequence (E2QF15 whole entry)

CO[C@H]1[C@H](O[C@@H](C2C(=O)N(Cc3ccccc3)C(=O)N2CCCNC(=O)[C@@H](NC(=O)[C@@H](NC(=O)N[C@H](C(=O)O)C(C)C)[C@@H]2CCNC(=N)N2)[C@@H](O)C(C)C)[C@H]2O[C@@H](n3ccc(=O)[nH]c3=O)[C@H](O)[C@@H]2O)O[C@H](CN)[C@H]1O (some centres undefined)
IC50 [1]: 6.25 µM

O=C(NCCNC(=O)[C@@H](O)[C@H](O)C(=O)NC[C@H]1O[C@@H](n2ccc(=O)[nH]c2=O)[C@H](O)[C@@H]1O)[C@@H](O)[C@H](O)C(=O)NC[C@H]1O[C@@H](n2ccc(=O)[nH]c2=O)[C@H](O)[C@@H]1O
inhibition (Candida albicans): 5%

CSCC[C@H](NC(=O)N[C@@H](Cc1c[nH]c2ccccc12)C(=O)O)C(=O)N[C@@H](CN(C)C(=O)[C@@H](N)Cc1cccc(O)c1)C(=O)N/C=C1/C[C@@H](O)[C@H](n2ccc(=O)[nH]c2=O)O1
MIC (Bacillus subtilis): 12.5 µg/mL (≈ 14.7 µM)

NC(=O)[C@@H](O)[C@H](O)C(=O)NC[C@H]1O[C@@H](n2ccc(=O)[nH]c2=O)[C@H](O)[C@@H]1O
inhibition (Candida albicans): 20%

CC(=O)N[C@H]1[C@H](O[C@@H]2O[C@H](C[C@@H](C)[C@H]3O[C@@H](n4ccc(=O)[nH]c4=O)[C@H](O)[C@@H]3O)[C@H](O)[C@H](O)[C@H]2NC(=O)CCCCCCCCCCCCCCC(C)C)O[C@@H](CO)[C@H](O)[C@@H]1O
MIC (Bacillus subtilis): 0.1 µg/mL (≈ 0.115 µM) | LD50 [2]: 0.137 mg/kg

CO[C@H]1[C@@H](OC)[C@H](n2ccc(=O)[nH]c2=O)O[C@@H]1[C@@H](O[C@@H]1OC(C(=O)NCCSSCCNC(C)=O)=C[C@@H](O)[C@H]1O)C(N)=O
IC50 [3]: 0.01 µM

CCC(C)CCCCCCCCCCCC/C=C/C(=O)N[C@H]1[C@H](O[C@@H]2O[C@@H](CO)[C@H](O)[C@H](O)[C@H]2NC(C)=O)O[C@H](C[C@@H](C)[C@H]2O[C@@H](n3ccc(=O)[nH]c3=O)[C@H](O)[C@@H]2O)[C@H](O)[C@@H]1O (some centres undefined)
MIC (Bacillus subtilis): 0.1 µg/mL (≈ 0.113 µM) | LD50 [2]: 0.137 mg/kg

CCC(C)CCCCCCCCCC/C=C/C(=O)N[C@H]1[C@H](O[C@@H]2O[C@@H](CO)[C@H](O)[C@H](O)[C@H]2NC(C)=O)O[C@H](C[C@@H](C)[C@H]2O[C@@H](n3ccc(=O)[nH]c3=O)[C@H](O)[C@@H]2O)[C@H](O)[C@@H]1O (some centres undefined)
MIC (Bacillus subtilis): 0.1 µg/mL (≈ 0.117 µM) | LD50 [2]: 0.137 mg/kg

O=C(NC[C@H]1O[C@@H](n2ccc(=O)[nH]c2=O)[C@H](O)[C@@H]1O)[C@@H](O)[C@H](O)C(=O)NC[C@H]1O[C@@H](n2ccc(=O)[nH]c2=O)[C@H](O)[C@@H]1O
inhibition (Candida albicans): 35%

NC(=O)[C@H](O)[C@@H](O)C(=O)NC[C@H]1O[C@@H](n2ccc(=O)[nH]c2=O)[C@H](O)[C@@H]1O
inhibition (Candida albicans): 12%

NC[C@H]1O[C@@H](O[C@@H](Cn2cc(CCCCCCCCCCc3ccccc3)nn2)[C@H]2O[C@@H](n3ccc(=O)[nH]c3=O)[C@H](O)[C@@H]2O)[C@H](O)[C@@H]1O
IC50 [3]: 8 µM

CCC(C)CCCCCCCCCCCCCCC(=O)N[C@H]1[C@H](O[C@@H]2O[C@@H](CO)[C@H](O)[C@H](O)[C@H]2NC(C)=O)O[C@H](C[C@@H](C)[C@H]2O[C@@H](n3ccc(=O)[nH]c3=O)[C@H](O)[C@@H]2O)[C@H](O)[C@@H]1O (some centres undefined)
MIC (Bacillus subtilis): 0.1 µg/mL (≈ 0.113 µM) | LD50 [2]: 0.137 mg/kg

CC(=O)N[C@H]1[C@H](O[C@@H]2O[C@H](C[C@@H](C)[C@H]3O[C@@H](n4ccc(=O)[nH]c4=O)[C@H](O)[C@@H]3O)[C@H](O)[C@H](O)[C@H]2NC(=O)/C=C/CCCCCCCCCCCC(C)C)O[C@@H](CO)[C@H](O)[C@@H]1O
MIC (Bacillus subtilis): 0.1 µg/mL (≈ 0.117 µM) | LD50 [2]: 0.137 mg/kg

N=C(N)NC[C@H]1O[C@@H](OC[C@H]2O[C@@H](n3ccc(=O)[nH]c3=O)[C@H](O)[C@@H]2O)[C@H](O)[C@@H]1O
IC50 [3]: 25 µM

CC(=O)N[C@H]1[C@H](O[C@@H]2O[C@H](C[C@@H](C)[C@H]3O[C@@H](n4ccc(=O)[nH]c4=O)[C@H](O)[C@@H]3O)[C@H](O)[C@H](O)[C@H]2NC(=O)CCCCCCCCCCCCC(C)C)O[C@@H](CO)[C@H](O)[C@@H]1O
MIC (Bacillus subtilis): 0.1 µg/mL (≈ 0.118 µM) | LD50 [2]: 0.137 mg/kg

CCCCCCCCCCc1cn(C[C@H](O[C@@H]2O[C@H](CN)[C@@H](O)[C@H]2O)[C@H]2O[C@@H](n3ccc(=O)[nH]c3=O)[C@H](O)[C@@H]2O)nn1
IC50 [3]: 8 µM

O=C(NCCCNC(=O)[C@@H](O)[C@H](O)C(=O)NC[C@H]1O[C@@H](n2ccc(=O)[nH]c2=O)[C@H](O)[C@@H]1O)[C@@H](O)[C@H](O)C(=O)NC[C@H]1O[C@@H](n2ccc(=O)[nH]c2=O)[C@H](O)[C@@H]1O
inhibition (Candida albicans): 10%

CCC(C)CCCCCCCCCCCCC(=O)N[C@H]1[C@H](O[C@@H]2O[C@@H](CO)[C@H](O)[C@H](O)[C@H]2NC(C)=O)O[C@H](C[C@@H](C)[C@H]2O[C@@H](n3ccc(=O)[nH]c3=O)[C@H](O)[C@@H]2O)[C@H](O)[C@@H]1O (some centres undefined)
MIC (Bacillus subtilis): 0.1 µg/mL (≈ 0.116 µM) | LD50 [2]: 0.137 mg/kg

NC[C@H]1O[C@@H](O[C@@H](CO)[C@H]2O[C@@H](n3ccc(=O)[nH]c3=O)[C@H](O)[C@@H]2O)[C@H](O)[C@@H]1O
IC50 [1]: 5 µM

CO[C@H]1[C@@H](O)[C@H](n2ccc(=O)[nH]c2=O)O[C@@H]1C(OC1OC(C(=O)Nc2ccc(C(O)C(O)C(=O)N/C=C/C(=O)NCC(=O)O)cc2)=CC(O)C1O)C(N)=O (some centres undefined)
IC50 [1]: 0.011 µM

CC(C)[C@H](NC(=O)N[C@H](C(=O)N[C@H](C(=O)NCCCN[C@@H](CC[C@H]1O[C@@H](n2ccc(=O)[nH]c2=O)[C@H](O)[C@@H]1O)C(=O)O)[C@@H](O)C(C)C)[C@@H]1CCNC(=N)N1)C(=O)O
IC50 [3]: 1.7 µM | IC50 [1]: 150 µM

CC(=O)N[C@H]1[C@H](O[C@@H]2O[C@H](C[C@@H](C)[C@H]3O[C@@H](n4ccc(=O)[nH]c4=O)[C@H](O)[C@@H]3O)[C@H](O)[C@H](O)[C@H]2NC(=O)CC(O)CCCCCCCCCCC(C)C)O[C@@H](CO)[C@H](O)[C@@H]1O (some centres undefined)
MIC (Bacillus subtilis): 0.1 µg/mL (≈ 0.116 µM) | LD50 [2]: 0.137 mg/kg

CC(=O)N[C@H]1[C@H](O[C@@H]2O[C@H](C[C@@H](C)[C@H]3O[C@@H](n4ccc(=O)[nH]c4=O)[C@H](O)[C@@H]3O)[C@H](O)[C@H](O)[C@H]2NC(=O)/C=C/CCCCCCCCCCC(C)C)O[C@@H](CO)[C@H](O)[C@@H]1O
MIC (Bacillus subtilis): 0.1 µg/mL (≈ 0.119 µM) | LD50 [2]: 0.137 mg/kg

NC[C@H]1O[C@@H](OC[C@H]2O[C@@H](n3ccc(=O)[nH]c3=O)[C@H](O)[C@@H]2O)[C@H](O)[C@@H]1O
IC50 [3]: 25 µM | IC50 [4]: 10 µM | IC50 [1]: 50 µM

CCCCCCCCCCCCN1C(=O)C([C@H](O[C@@H]2O[C@H](CN)[C@@H](O)[C@H]2OC)[C@H]2O[C@@H](n3ccc(=O)[nH]c3=O)[C@H](O)[C@@H]2O)N(CCCNC(=O)[C@@H](NC(=O)[C@@H](NC(=O)N[C@H](C(=O)O)C(C)C)[C@@H]2CCNC(=N)N2)[C@@H](O)C(C)C)C1=O (some centres undefined)
IC50 [1]: 6.25 µM

NC[C@H]1O[C@@H](O[C@@H](Cc2cn(Cc3ccc(COc4ccc(C(=O)c5ccccc5)cc4)cc3)nn2)[C@H]2O[C@@H](n3ccc(=O)[nH]c3=O)[C@H](O)[C@@H]2O)[C@H](O)[C@@H]1O
IC50 [3]: 8 µM

CO[C@H]1[C@@H](O)[C@H](n2ccc(=O)[nH]c2=O)O[C@@H]1[C@@H](O[C@@H]1OC(C(=O)N[C@H]2CSC[C@@H](C)NC2=O)=C[C@@H](O)[C@H]1O)C(N)=O
IC50 [3]: 0.058 µM

NC[C@H]1O[C@@H](O[C@@H](Cc2cn(CCCCCCCCCCOc3ccc(C(=O)c4ccccc4)cc3)nn2)[C@H]2O[C@@H](n3ccc(=O)[nH]c3=O)[C@H](O)[C@@H]2O)[C@H](O)[C@@H]1O
IC50 [3]: 8 µM

NC[C@H]1O[C@@H](OC[C@@H]2C[C@@H](O)[C@H](n3ccc(=O)[nH]c3=O)O2)[C@H](O)[C@@H]1O
IC50 [4]: 10 µM

NC[C@H]1O[C@@H](O[C@@H](Cn2cc(Cc3ccc(COc4ccc(C(=O)c5ccccc5)cc4)cc3)nn2)[C@H]2O[C@@H](n3ccc(=O)[nH]c3=O)[C@H](O)[C@@H]2O)[C@H](O)[C@@H]1O
IC50 [3]: 8 µM

CNC[C@H]1O[C@@H](OC[C@H]2O[C@@H](n3ccc(=O)[nH]c3=O)[C@H](O)[C@@H]2O)[C@H](O)[C@@H]1O
IC50 [3]: 25 µM

NC[C@H]1O[C@@H](OC[C@H]2O[C@@H](n3ccc(=O)[nH]c3=O)C[C@@H]2O)[C@H](O)[C@@H]1O
IC50 [4]: 10 µM

CC(=O)N[C@H]1[C@H](O[C@@H]2O[C@H](C[C@@H](C)[C@H]3O[C@@H](n4ccc(=O)[nH]c4=O)[C@H](O)[C@@H]3O)[C@H](O)[C@H](O)[C@H]2NC(=O)/C=C/CCCCCCCCCCCCC(C)C)O[C@@H](CO)[C@H](O)[C@@H]1O
MIC (Bacillus subtilis): 0.1 µg/mL (≈ 0.115 µM) | LD50 [2]: 0.137 mg/kg

N=CNC[C@H]1O[C@@H](OC[C@H]2O[C@@H](n3ccc(=O)[nH]c3=O)[C@H](O)[C@@H]2O)[C@H](O)[C@@H]1O
IC50 [3]: 25 µM

CC(=O)N[C@H]1[C@H](O[C@@H]2O[C@H](C[C@@H](C)[C@H]3O[C@@H](n4ccc(=O)[nH]c4=O)[C@H](O)[C@@H]3O)[C@H](O)[C@H](O)[C@H]2NC(=O)CC(O)CCCCCCCCCCCCC(C)C)O[C@@H](CO)[C@H](O)[C@@H]1O (some centres undefined)
MIC (Bacillus subtilis): 0.1 µg/mL (≈ 0.112 µM) | LD50 [2]: 0.137 mg/kg
